Data published in patent US10960088B2, “Macrocycles, cobalt and iron complexes of same, and methods of making and using same” (The Research Foundation for The State University of New York, priority 2013, dated 2021).
Several values for one entry are separate records, joined by “and”; a condition that tells them apart may be missing. Identical values can stand only once. Entries after “also recorded” stand apart in the source; their conditions may differ.

What was measured:
[1] = Redox potentials of iron complexes (no method given); assay type: physicochemical
[2] = Kinetics of Co(II) oxidation and Co(III) reduction by UV-vis; assay type: physicochemical
Description: Materials and methods. Instrumentation. Varian Inova 400 MHz and Inova 500 MHz NMR spectrometers were used to collect ^1H NMR spectra. ^13C NMR spectra were acquired using a Varian Mercury 300 MHz NMR spectrometer operating at 75 MHz. The measurements of magnetic susceptibility and CEST data were acquired on Varian Inova 500 MHz NMR spectrometer. Temperature of samples during ^1H NMR and CEST experiments was controlled with FTS Systems TC-84 Kinetics Air Jet Temperature Controller. A Thermo Scientific Orion 9826BN NMR micro pH electrode connected to a SympHony SB20 pH meter and the Orion 8115BNUWP Ross-ultra semi micro pH electrode connected to a Titrino 702 pH meter were used for pH measurements. ThermoFinnigan LCQ Advantage IonTrap LC/MS equipped with a Surveyor HPLC system was used to collect mass spectral data. Absorbance spectra of [Co(TPT)]^2+ and [Co(TPT)]^3+, together with the kinetic experiments for the reduction of Co(III) with L-ascorbic acid or sodium dithionite, and for the oxidation of Co(II) with oxygen or sodium peroxydisulfate were measured with a Beckman-Coulter DU 800 UV-vis Spectrophotometer equipped with a Peltier Temperature Controller. Kinetic experiments for the oxidation of Co(II) complex were performed after equilibration of the solutions with a mixture containing 5%, 10%, and 20% of oxygen in nitrogen followed by addition of [Co(TPT)]^2+ in the minimal volume of solvent. All experiments for the reduction of […] were performed under an inert atmosphere of argon. […]

[3] = Exchange rate constants (omega plot)
Protocol: Exchange rate constants were calculated following a previously reported procedure. Measurements of on-resonance (Mz) and off-resonance (Mo) were acquired at different presaturation pulse powers between 350-1000 Hz (8-24 μT) applied for 4 seconds at 37° C. The exchange rate constant (kex) is calculated from the x-intercept from the plot of Mz/(Mo−Mz) against 1/ω1^2 (ω1 in rad/s). The rate constant, kex, is converted into units of s^−1. Samples contained 10 mM Co^II complex, 20 mM HEPES pH 7.4, and 100 mM NaCl.
The exchange rate constants were calculated by using a previously reported procedure. The magnetization of the on-resonance (Mz) and off-resonance (Mo) were acquired at different pre-saturation pulse powers between 350-1090 Hz applied for 4 seconds. To calculate the exchange rate constant (kb), the x-intercept (−1/kb^2) was obtained from the plot of Mz/(Mo−Mz) against 1/ω1^2 (ω1 in rad/s). Samples contained 16 mM [Co(TPT)]Cl2, 200 mM NaCl, and 40 mM MES or HEPES at pH 6.4-7.5. Measurements were carried out at 37° C.

Cyclic voltammetry = assay type: physicochemical; details: versus NHE, in water, 1 M KCl
Protocol: Cyclic voltammograms were obtained using a Princeton Applied Research Model 263A Potentiostat/Galvanostat and PowerSuite software program. CHI 104 Glassy Carbon Disk working electrode from CH Instruments, Inc. (Austin, Tex.) was used. Cyclic Voltammetry. […] (FIG. 6). The external ferrocyanide standard with Eo (Fe(III)/Fe(II))=303±10 mV vs. NHE contained 1.0 mM K4Fe(CN)6 and 1.00 M KCl under argon. The redox potential of the complex calculated based on a NHE reference using eq. 6: E^o(vs. NHE)=E^o(vs. Ag/AgCl)+167 mV, eq. 6 Determination of Magnetic Moment.

[4] = Oxidation in air / reduction with dithionite followed by 1H NMR; assay type: physicochemical
[5] = Effective magnetic moment in solution from magnetic susceptibility (NMR); assay type: physicochemical; details: aqueous solution
Protocol: The effective magnetic moment (μeff) was calculated by using a previously known method. 5 mM Co^II complex and 5% t-butanol by volume was placed in a NMR insert while the outer NMR tube contained 5% by volume t-butanol in D2O. The μeff was calculated at 298 K (T) and monitored over a period of 72 hours using the following approach.
The mass susceptibility of solute (χg) was calculated by obtaining the observed frequency shift of the reference (Δf) in Hz, the spectrometer frequency (f) in Hz, the mass of the substance per cm^3 of solution (m), and the mass susceptibility of solvent D2O (χ0=−0.6466×10^−6 cm^3/g). The last term is neglected due to the minimal contribution to mass susceptibility of solute. The molar susceptibility (χm) is the product of χg multiplied by the molecular weight of the Co^II complex.
The effective magnetic moment was calculated by using a previously known method. In a typical experiment, oxygen-free solution of 8-20 mM [Co(TPT)]^2+ in deuterium oxide, pD 7.0, containing 5% tert-butanol by volume was placed in an NMR tube, while a reference solution of 5% tert-butanol (v/v) in deuterium oxide, pD 7.0, was placed into NMR tube insert. All solutions of [Co(TPT)]^2+ were purged with argon and kept in the absence of air. The effective magnetic moment (μeff) was calculated at 298 K (T) using the following equations 7-8. In these equations the mass susceptibility of solute (χg) was calculated by obtaining the observed frequency shift of the reference (Δf) in Hz, the spectrometer frequency (f) in Hz, the mass of the substance per cm^3 of the solution (m), and the mass susceptibility of deuterium oxide (χ0=−0.6466×10^−6 cm^3/g). The last term in eq. SI is neglected due to the minimal contribution to mass susceptibility of solute. The molar susceptibility (χm) is the product of χg multiplied by the molecular weight of the [Co(TPT)]Cl2 complex. Reported value of the effective magnetic moment was obtained by averaging of three independent experiments. χg=(−3Δf)/(4πfm)+χ0+[χ0(d0−ds)]/m eq. 7 μeff=2.84(χmT)^1/2 eq. 8

| redox potential [1] | reduction potential (Cyclic voltammetry) | effective magnetic moment [5] | SMILES | second-order rate constant for reduction by dithionite ([2]; 200 mM NaCl, 40 mM HEPES, pH 7.0, 37° C.) | second-order rate constant for oxidation by oxygen ([2]; 200 mM NaCl, 40.0 mM HEPES, pH 7.1, 25° C.) | rate constant for oxidation of the Co(II) complex ([2]; ambient pressures of oxygen) | rate constant for reduction of Co(III) complex ([2]; excess dithionate) | rate constant for oxidation, extrapolated ([2]; hypoxic conditions, 10 mm Hg, 17 μM O2) | rate constant for oxidation, extrapolated ([2]; oxygen 100 mm Hg (0.17 mM O2), arterial blood) | rate constant for oxidation of the Co(II) complex ([2]; partial pressures of oxygen of 5%, in 1/s) | rate constant for proton exchange ([3]; pH 6.4, 37° C.) | rate constant for proton exchange ([3]; pH 6.9, 37° C.) | rate constant for proton exchange ([3]; pH 7.5, 37° C.) | stability towards oxidation in air (in words) [4] |
| --- | --- | --- | --- | --- | --- | --- | --- | --- | --- | --- | --- | --- | --- | --- |
| 195 mV | – | – | O=C([O-])CN1CCN(CC(=O)[O-])CCN(CC(=O)[O-])CC1.[Fe+3] [Fe(NOTA)] | – | – | – | – | – | – | – | – | – | – | – |
| – | −107 mV and −107±11 mV | 5.7±0.2 BM | [Co+2].c1cc(CN2CCN(Cc3cc[nH]n3)CCN(Cc3cc[nH]n3)CC2)n[nH]1 [[Co(TPT)]^2+] | 0.24 M⁻¹ s⁻¹ | 0.43 M⁻¹ s⁻¹ | 5e-06 s⁻¹ | 4e-05 s⁻¹ | 7.3e-06 s⁻¹ | 7.3e-05 s⁻¹ | 2×10^−6 | 6,200 s^−1 | 9,200 s^−1 | 12,400 s^−1 | readily oxidize; also recorded: oxidizes in air to the Co(III) form |
| – | – | – | [Fe+2].c1cc(CN2CCN(Cc3cc[nH]n3)CCN(Cc3cc[nH]n3)CC2)n[nH]1 [[Fe(TPT)]^2+] | – | – | – | – | – | – | – | – | – | – | readily oxidize |
